In PubChem BioAssay (NCI):
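Growth conditions: 96-well plates. Treatment: test compound, 48 hours, 5 concentrations. Analysis: linear interpolation between bracketing concentrations; unreached endpoints set to highest concentration. GI50 = concentration required for 50% inhibition of growth. The concentration for full growth arrest is given as TGI.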

What was measured:
Experiment in all cases: DTP human tumour cell line panel, 48 h
SN12C renal = test system: SN12C renal
UACC-257 melanoma = test system: UACC-257 melanoma
LOX IMVI melanoma = test system: LOX IMVI melanoma
SNB-75 CNS = test system: SNB-75 CNS
MOLT-4 leukemia = test system: MOLT-4 leukemia
M14 melanoma = test system: M14 melanoma
NCI-H522 lung = test system: NCI-H522 lung
SNB-19 CNS = test system: SNB-19 CNS
RPMI-8226 leukemia = test system: RPMI-8226 leukemia
PC-3 prostate = test system: PC-3 prostate

Question: `CC(C)=CCC/C(=C/CC/C(C)=C/CCc1ccoc1)C(=O)O` was tested. Which TGI (SN12C renal) did it give?
Answer: Its TGI is > 100 µM.

Question: And the TGI (UACC-257 melanoma)?
Answer: The TGI was > 100 µM.

Question: What about the TGI (LOX IMVI melanoma) of the same molecule?
Answer: Its TGI is > 100 µM.

Question: And the TGI (SNB-75 CNS)?
Answer: Its TGI is > 100 µM.

Question: And the TGI (MOLT-4 leukemia)?
Answer: The TGI was > 100 µM.

Question: And the TGI (M14 melanoma)?
Answer: Its TGI is > 100 µM.

Question: And the TGI (NCI-H522 lung)?
Answer: Its TGI is > 100 µM.

Question: What about the TGI (SNB-19 CNS) of the same molecule?
Answer: The TGI was > 100 µM.

Question: With `CCCCCCCCCCCCCC1CCC(CC)N1` (centres undefined) as the molecule, how does the TGI (SN12C renal) read?
Answer: The TGI was 23.4 µM.

Question: What about the TGI (UACC-257 melanoma) of the same molecule?
Answer: Its TGI is 40.6 µM.

Question: What about the TGI (LOX IMVI melanoma) of the same molecule?
Answer: The TGI was 32 µM.

Question: And the TGI (SNB-75 CNS)?
Answer: The TGI was 17.7 µM.

Question: And the TGI (MOLT-4 leukemia)?
Answer: Its TGI is 30.6 µM.

Question: And the TGI (M14 melanoma)?
Answer: Its TGI is 31.8 µM.

Question: And the TGI (NCI-H522 lung)?
Answer: The TGI was 32.6 µM.

Question: What about the TGI (SNB-19 CNS) of the same molecule?
Answer: The TGI was 30.7 µM.

Question: What about the TGI (RPMI-8226 leukemia) of the same molecule?
Answer: The TGI was 36.8 µM.

Question: What does the source list for `Cc1ccc(N(C(=O)CC(=O)NN)C(=O)c2ccccc2Cl)cc1`?
Answer: TGI (SN12C renal): > 100 µM; TGI (UACC-257 melanoma): > 100 µM; TGI (LOX IMVI melanoma): > 100 µM; TGI (SNB-75 CNS): > 100 µM; TGI (MOLT-4 leukemia): > 100 µM; TGI (M14 melanoma): > 100 µM; TGI (NCI-H522 lung): > 100 µM; TGI (SNB-19 CNS): > 100 µM; TGI (RPMI-8226 leukemia): > 100 µM

Question: How did the GI50 (SN12C renal) turn out when `N.N.N.N.N.O=C([O-])c1nn[n-]n1.[Cl-].[Co+3]` was run?
Answer: The GI50 was > 100 µM.

Question: And the TGI (SN12C renal)?
Answer: Its TGI is > 100 µM.

Question: And the GI50 (UACC-257 melanoma)?
Answer: Its GI50 is > 100 µM.

Question: And the TGI (UACC-257 melanoma)?
Answer: The TGI was > 100 µM.

Question: What about the GI50 (LOX IMVI melanoma) of the same molecule?
Answer: The GI50 was > 100 µM.

Question: And the TGI (LOX IMVI melanoma)?
Answer: The TGI was > 100 µM.

Question: And the GI50 (SNB-75 CNS)?
Answer: Its GI50 is > 100 µM.

Question: What about the TGI (SNB-75 CNS) of the same molecule?
Answer: The TGI was > 100 µM.

Question: And the GI50 (MOLT-4 leukemia)?
Answer: The GI50 was > 100 µM.

Question: What about the TGI (MOLT-4 leukemia) of the same molecule?
Answer: The TGI was > 100 µM.

Question: And the GI50 (M14 melanoma)?
Answer: The GI50 was > 100 µM.

Question: What about the TGI (M14 melanoma) of the same molecule?
Answer: The TGI was > 100 µM.

Question: And the GI50 (SNB-19 CNS)?
Answer: The GI50 was > 100 µM.

Question: And the TGI (SNB-19 CNS)?
Answer: Its TGI is > 100 µM.

Question: What about the GI50 (RPMI-8226 leukemia) of the same molecule?
Answer: The GI50 was > 100 µM.

Question: And the TGI (RPMI-8226 leukemia)?
Answer: The TGI was > 100 µM.

Question: What does the source list for `Fc1cc(F)c(COc2cc(Cn3cnc4c(Cl)nc(Cl)nc43)ccc2C23CC4CC(CC(C4)C2)C3)cc1F`?
Answer: GI50 (SN12C renal): 11 µM; TGI (SN12C renal): 24.9 µM; GI50 (UACC-257 melanoma): 21 µM; TGI (UACC-257 melanoma): 39.3 µM; GI50 (LOX IMVI melanoma): 1.76 µM; TGI (LOX IMVI melanoma): 3.91 µM; GI50 (SNB-75 CNS): 21.7 µM; TGI (SNB-75 CNS): 52.1 µM; GI50 (NCI-H522 lung): 2.29 µM; TGI (NCI-H522 lung): 5.56 µM; GI50 (PC-3 prostate): 19.3 µM; TGI (PC-3 prostate): 33.8 µM; GI50 (SNB-19 CNS): 17.5 µM; TGI (SNB-19 CNS): 31.7 µM

Question: With `Cc1ccc(/C(=C/C=C(C#N)C#N)Sc2ccc(Cl)cc2)cc1` as the molecule, how does the GI50 (SN12C renal) read?
Answer: The GI50 was 4.32 µM.

Question: And the TGI (SN12C renal)?
Answer: The TGI was 18 µM.

Question: What about the GI50 (UACC-257 melanoma) of the same molecule?
Answer: Its GI50 is 9.04 µM.

Question: What about the TGI (UACC-257 melanoma) of the same molecule?
Answer: The TGI was 22 µM.

Question: And the GI50 (LOX IMVI melanoma)?
Answer: The GI50 was 2.57 µM.

Question: And the TGI (LOX IMVI melanoma)?
Answer: The TGI was 5.98 µM.

Question: What about the GI50 (MOLT-4 leukemia) of the same molecule?
Answer: The GI50 was 1.85 µM.

Question: What about the TGI (MOLT-4 leukemia) of the same molecule?
Answer: Its TGI is 14.3 µM.

Question: What about the GI50 (M14 melanoma) of the same molecule?
Answer: The GI50 was 5.44 µM.

Question: And the TGI (M14 melanoma)?
Answer: The TGI was 17.7 µM.

Question: What about the GI50 (PC-3 prostate) of the same molecule?
Answer: Its GI50 is 3.65 µM.

Question: What about the TGI (PC-3 prostate) of the same molecule?
Answer: Its TGI is 14.7 µM.

Question: What about the GI50 (SNB-19 CNS) of the same molecule?
Answer: The GI50 was 11 µM.

Question: And the TGI (SNB-19 CNS)?
Answer: The TGI was 25.3 µM.

Question: What about the GI50 (RPMI-8226 leukemia) of the same molecule?
Answer: The GI50 was 2.34 µM.

Question: And the TGI (RPMI-8226 leukemia)?
Answer: The TGI was 7.96 µM.

Question: Which TGI (SN12C renal) does the source give for `COc1c2c(cc3nc4ccccc4nc13)CCC(C(C)(C)O)C2` (centres undefined) here?
Answer: Its TGI is > 100 µM.

Question: What about the TGI (UACC-257 melanoma) of the same molecule?
Answer: Its TGI is > 100 µM.

Question: And the TGI (LOX IMVI melanoma)?
Answer: Its TGI is > 100 µM.

Question: And the TGI (SNB-75 CNS)?
Answer: The TGI was > 100 µM.

Question: What about the TGI (MOLT-4 leukemia) of the same molecule?
Answer: Its TGI is > 100 µM.

Question: And the TGI (M14 melanoma)?
Answer: The TGI was > 100 µM.

Question: What about the TGI (NCI-H522 lung) of the same molecule?
Answer: Its TGI is > 100 µM.

Question: And the TGI (SNB-19 CNS)?
Answer: Its TGI is > 100 µM.

Question: How did the TGI (SN12C renal) turn out when `Cn1cc(C(=O)c2ccccc2)ccc1=O` was run?
Answer: Its TGI is > 100 µM.

Question: And the TGI (UACC-257 melanoma)?
Answer: Its TGI is > 100 µM.

Question: What about the TGI (LOX IMVI melanoma) of the same molecule?
Answer: Its TGI is > 100 µM.

Question: And the TGI (SNB-75 CNS)?
Answer: The TGI was > 100 µM.

Question: What about the TGI (MOLT-4 leukemia) of the same molecule?
Answer: Its TGI is > 100 µM.

Question: What about the TGI (M14 melanoma) of the same molecule?
Answer: Its TGI is > 100 µM.

Question: And the TGI (NCI-H522 lung)?
Answer: Its TGI is > 100 µM.

Question: And the TGI (SNB-19 CNS)?
Answer: Its TGI is > 100 µM.

Question: And the TGI (RPMI-8226 leukemia)?
Answer: The TGI was > 100 µM.

Question: What does the source list for `Nc1ccc(/C=C/c2ccnc3ccccc23)cc1`?
Answer: TGI (UACC-257 melanoma): 57.8 µM; TGI (SNB-75 CNS): 41.8 µM; TGI (MOLT-4 leukemia): 38.7 µM; TGI (M14 melanoma): 51.5 µM; TGI (NCI-H522 lung): 30.7 µM; TGI (SNB-19 CNS): 79.3 µM; TGI (RPMI-8226 leukemia): 52.7 µM

Question: What does the source list for `O=c1cccccc1NCCCNc1cccccc1=O`?
Answer: TGI (SN12C renal): 32.3 µM; TGI (UACC-257 melanoma): > 100 µM; TGI (LOX IMVI melanoma): > 100 µM; TGI (MOLT-4 leukemia): > 100 µM; TGI (M14 melanoma): > 100 µM; TGI (NCI-H522 lung): > 100 µM; TGI (SNB-19 CNS): > 100 µM; TGI (RPMI-8226 leukemia): > 100 µM
